Legend:
Flag-HA-DCD19-EGFP = assay: Degradation of Flag-HA-DCD19-EGFP in murine cells; format: cell-based, mouse; conditions: 2208L and PyMT, 24 h, western blotting
Experimental: Given the high degradation efficiency of DCD23 in human cells, we sought to test the applicability of this system in murine cells.
The protein lysates were probed for EGFP using western blotting. […] EGFP signal was then measured using flow cytometry. (3 independent experiments, normalized to the control and represented as mean ± SD). […] Data are plotted as Log2 fold change relative to DMSO versus Log10 of p value.

cMYC-EGFP-DCD19 = assay: Flow cytometry of EGFP signal, cMYC-EGFP-DCD19 in HMEC; format: cell-based, human; conditions: 10uM, 4h
Description: To systematically delineate the optimal DCD/degrader combination for targeted protein degradation, we undertook a matrix approach evaluating all 23 DCD tags against 6 small molecule degraders. […] To control for any potential off-target effects of the IMiD/CeLMOD agents that could indirectly affect the target of interest, we designed controls in which the specific DCD and the EGFP sequences were interspaced by a P2A ribosomal “skipping” sequence,[32] leading to separate translation of the DCD and the target protein (Figure 1A). These constructs were then inserted into a doxycycline-inducible lentiviral vector system and stably expressed in hTERT immortalized human mammary epithelial cells (HMEC), a suitable model to assess the functional consequences of cMYC degradation. cMYC was tagged at the C-terminus end for the initial screening experiments.
Figure 1 Design and experimental evaluation of the DCD tags (A) Representation of the experimental pipeline used to evaluate the different DCD constructs. […] Median EGFP intensity was measured in each condition using flow cytometry (3 independent experiments, normalized to the control and represented as mean ± SD). […] The protein lysates were probed for cMYC levels using western blotting. […] Target loss was evaluated either by measuring EGFP median intensity using flow cytometry or western blotting for cMYC protein (3 independent experiments, normalized to the control and represented as mean ± SD). […] Target loss was evaluated as in (D) (3 independent experiments, normalized to the control and represented as mean ± SD). […] Protein lysates were collected and probed for cMYC and p21 using western blotting. […] Protein lysates were collected and probed for cMYC and p21 using western blotting. […] These were left out as controls with no test substance.
Following degrader treatment cells were collected and DAPI was added to the cell suspension at 1 μg/mL to allow the exclusion of dead cells. EGFP signal was measured using BD LSR II flow cytometer (BD Biosciences). FlowJo 10 Software (FlowJo) was used for data processing.

DCD23-EGFP-KRAS^[G12V] = assay: Western blotting for KRAS G12V and p-MEK1(T292) in HMEC; format: cell-based, human; conditions: 10uM, 48h
Experimental: Figure 2 Degradation of cytoplasmic and nuclear targets using iTAG (A) HMEC cells expressing N-terminally tagged DCD23-EGFP-KRAS^[G12V], DCD23-EGFP-EZH2, DCD23-EGFP-cMYC or their corresponding P2A control were induced with doxycycline for 24h then treated with either DMSO or the different indicated drugs at a concentration of 10uM for 4h. Median EGFP intensity was measured in each condition using flow cytometry and normalized values were represent in the Log2 Fold change relative to the DMSO control. (B) HMEC cells expressing Dox inducible C-terminally tagged KRAS^[G12V]-EGFP-DCD23, EZH2-EGFP-DCD23 or their corresponding P2A control were induced with doxycycline for 24h then treated with either DMSO or the different indicated drugs at a concentration of 10uM for 4h. Median EGFP intensity was measured in each condition using flow cytometry and normalized values were represent in the Log2 Fold Change relative to the DMSO control. […]
We then analyzed the functional consequences of KRAS^[G12V]-induced degradation. […] Subsequently, we analyzed the functional consequences of KRAS^[G12V]-induced degradation. […]
Cells were lysed with SDS lysis buffer (2% SDS, 10% Glycerol, 50mM Tris pH 6.8) and boiled at 95°C for 30min. Protein concentration was measured using Pierce BCA Protein Assay Kit (ThermoFischer) following manufacturer’s recommendations. […]

[1] = Plasma CC220 level in tumor-bearing mice; format: in vivo; conditions: mouse, 30 mg/kg oral, 24h post administration

O=C1CC[C@H](N2Cc3c(OCc4ccc(CN5CCOCC5)cc4)cccc3C2=O)C(=O)N1 [CC220, Iberdomide]
degradation of DCD19 tagged EGFP (Flag-HA-DCD19-EGFP): not degraded | loss of cMYC-EGFP signal (cMYC-EGFP-DCD19): robust loss of cMYC-EGFP signal | MEK1 (T292) phosphorylation after degradation of N-terminally tagged KRAS G12V (DCD23-EGFP-KRAS^[G12V]): concomitant decrease in MEK1 (T292) phosphorylation | residual plasma level [1]: nanomolar range

From paper PMC10285648, “iTAG an optimized IMiD-induced degron for targeted protein degradation in human and murine cells” (iScience, 2023)
